Reference: PMC9469084, “Unravelling the pharmacokinetics of aflatoxin B1: In vitro determination of Michaelis–Menten constants, intrinsic clearance and the metabolic contribution of CYP1A2 and CYP3A4 in pooled human liver microsomes” (Frontiers in Microbiology, 2022)
Where “and” joins values, the source holds several entries; their conditions need not be identical. Equal values may be shown once. Read-outs that look alike come from different tables or passages of the source. Marks after values point to notes of the source that are not given here.

Key:
[1] = tested on: CYP3A4 (MDZ), CYP1A2 (PH); assay: in vitro; settings: human, pH 7.4; for microsomal CLint: microsomes
Protocol: (§1) A 1.15% KCl solution was made in HPLC grade water and stored at 4°C. HLM (20 mg/ml in 250 mM sucrose) were diluted in 1.15% KCl to achieve a final protein concentration of 0.1; 0.25; 0.5; 0.75 and 1 mg/ml in the samples. The stop reagent was made with 300 μl FA, 5,500 μl ACN and Ultrapure water and contained the internal standards (IS; 0.072 μM of CHL and 0.12 μg/ml of ZAN).
(§2) Samples were prepared partially based on [Schelstraete et al. (2019a],[b)]. […] Next, 50 μl of a freshly prepared NADPH.4Na solution was added. After an incubation of 3 min, 50 μl of diluted HLM was added and they were placed back on the thermoshaker TS-100 (Biosan, Geraardsbergen, Belgium) with a rotation speed of 300 rpm and at a temperature of 37°C. After the indicated time (i.e., 5, 10, 20, 30 and 45 min), 25 μl of an ice cold stop reagent with IS, i.e., CHL for CYP probes and ZAN for AFB1, was added. For protein precipitation, 125 μl of TFA was added. Samples were centrifuged at 16,000×g for 20 min at 4°C. The centrifugal filters were discarded and the supernatant was added to 1 ml of a 0.2 M phosphate buffer. Next, 7 ml of ethyl acetate was added in order to perform a liquid–liquid extraction (LLE). Samples were extracted during 20 min on an Agitelec shaker at room temperature. For phase separation, samples were centrifuged at 2,000× g for 10 min. Subsequently, the organic phase was transferred in glass tubes and evaporated under a gentle nitrogen stream at 40°C (±5°C) using a Turbovap (Biotage, Charlotte, United States). After evaporation, samples were kept at −20°C until further analysis. Upon analysis, 250 μl of a 60/40 mobile phase A (MP A; H2O/MeOH/acetic acid (94/5/1, v/v/v) + 5 mM ammonium acetate)/mobile phase B (MP B; H2O/MeOH/acetic acid (2/97/1, v/v/v) + 5 mM ammonium acetate) mixture was added. After thorough vortexing and centrifuging for 10 min at 1,000× g, the samples were transferred to an autosampler vial. An aliquot of 5 μl was injected into the ultrahigh performance liquid chromatography (UPLC) - XEVO TQ-S (LC–MS/MS) equipment using an in-house developed and validated method.
(§3) A Waters Acquity class I UPLC system coupled to a XEVO TQ-S tandem quadrupole mass spectrometer (MS) from Waters (Milford, MA, United States) was used for the detection and quantification. A Charged Surface Hybrid (CSH) C18 column (1.7 μm 2.1 × 100 mm) with Guard column was used for chromatographic separation. The column temperature was set at 30°C; the sample temperature at 10°C. The MP was used at a flow rate of 0.250 ml/min following a gradient program (Table 1). The total duration for a single run was 12 min. The MS was operated in the electrospray positive mode (ESI+) with multiple reaction monitoring (MRM). Source temperature and desolvation temperature were set at 130°C and 200°C. The cone gas flow was set at 150 L/h, the desolvation gas flow at 550 L/h. Data was processed using Masslynx® and Targetlynx® software from Micromass (Manchester, United Kingdom). Data analysis was performed by transferring Targetlynx® data to Microsoft Excel and Sigmaplot version 14.5. For AFB1, substrate depletion was measured. Nonlinear regression on sigmoidal plots where the initial depletion rate (kdep) was plotted against AFB1 concentrations on a linear-log plot, was performed using Excel Solver ([Youdim and Dodia, 2010]).
(§4) Substrate work solutions of AFB1 were made to achieve sample concentrations from 0.5 μM to 50 μM, for the HLM experiments. For rhCYP an extra AFB1 sample concentration of 100 μM was implemented. HLM (20 mg/ml in 250 mM sucrose) were diluted in 1.15% KCl to achieve a final protein concentration of 0.25 and 0.5 mg/ml in the samples, as based on previous linearity experiments. The stop reagents were those described in 2.1.2.
(§5) For CYP3A4 rhCYP experiments, 50 μl of diluted supersomes at 150 pmol/ml were used instead of HLM, achieving a final concentration of 30 pmol/ml.

[2] = tested on: pooled human liver microsomes; assay: in vitro
Protocol: as §1, §2, §3, §4, §5

[3] = cited from earlier work
human liver microsomes [4] = settings: cited from earlier work
[5] = human, microsomes
CYP3A4 [6] = biological target: CYP3A4 (Homo sapiens, UniProt P08684); assay: in vitro
Protocol: as §4
(§6) For CYP3A4 rhCYP experiments, 50 μl of diluted supersomes at 150 pmol/ml were used instead of HLM, achieving a final concentration of 30 pmol/ml. For CYP1A2 rhCYP experiments, 50 μl of diluted EasyCYP LR bactosomes at 50 pmol/ml were used, achieving a final concentration of 10 pmol/ml.
(§7) The same equipment, settings and procedures were used as explained in Section “LC–MS/MS (linearity experiments).” Data analysis was performed by transferring Targetlynx® data to Microsoft® Excel. Metabolite formation velocity versus substrate concentration figures were plotted with error bars, Sigmaplot version 14.5 was used for determining the Michaelis–Menten constant (Km) and maximum velocity (Vmax) by performing nonlinear regression on the figures. For AFB1 substrate depletion was measured. Nonlinear regression on sigmoidal plots, where the initial depletion rate (kdep) was plotted against AFB1 concentrations on a linear-log plot, was performed using Excel Solver ([Youdim and Dodia, 2010]).
(§8) The CLH,u,int is multiplied by the AAF, leading to an AAF corrected CLH,u,int (CLH,u,int,AAF). The obtained Km and Vmax values of the CYP probes from rhCYPs were used to calculate intersystem extrapolation factors (ISEFs) for both Vmax and CLint (Equations 7 and 8).
(§9) (7) VmaxISEF=Vmax,HLM/Vmax,rhCYP∗CYPabundancepmolP450/mg
(§10) (8) CLintISEF=Vmax,HLM/Km,HLM∗10^−6/Vmax,rhCYP/Km,rhCYP∗10^−6∗CYPabundancepmolP450/mg
(§11) CLH,u,int,AAF values of AFB1 from rhCYP experiments were multiplied with the CLint ISEF, resulting in an ISEF corrected CLH,u,int,AAF (CLH,u,int,AAF,ISEF). […] Equation 10 presents the extrapolation to the whole liver hepatic blood clearance from rhCYP experiments. The hepatic blood clearance (CLH,B) was multiplied by the blood/plasma ratio (B:P) to obtain the whole liver hepatic plasma clearance, CLH,P.
(§12) (10) CLH,BL/h=QH∗fu,b∗CLH,u,int,AAF,ISEF/QH+fu,b∗CLH,u,int,AAF,ISEF
(§13) Next, Km and Vmax experiments were performed in recombinant enzyme systems. […] For AFB1, where substrate depletion was analyzed, kdep was determined for different substrate concentrations in supersomes and bactosomes which was plotted against AFB1 substrate concentrations on a log-scale (Figures 3E,F). By dividing the theoretical maximal kdep by the protein concentration, the CLint was achieved from which the Vmax could be determined ([Youdim and Dodia, 2010]).

CYP1A2 [7] = biological target: T1, CYP1A2 (Homo sapiens, UniProt P05177)
Protocol: as §4, §6, §7, §8, §9, §10, §11, §12, §13

human liver microsomes [8] = assay: AFB1 inhibition assays in HLM, both contributions combined; assay type: in vitro ADME
[9] = cited from earlier work; remark: listed apart in the source
CYP1A2 [10] = biological target: T1, CYP1A2; parameters: tissue Corning; host or cells: human liver microsomes, UltraPool HLM 150, mixed gender; settings: cited from earlier work
CYP3A4/3A5 = assay type: in vitro ADME, human
CYP3A5 = settings: cited from earlier work
CYP3A4 [11] = settings: cited from earlier work
CYP1A2 [12] = biological target: T1, CYP1A2; assay: AFB1 inhibition assay in HLM with α-naphthoflavone; assay type: in vitro ADME; parameters: tissue Corning; host or cells: human liver microsomes, UltraPool HLM 150, mixed gender
CYP3A7 = settings: cited from earlier work
[13] = HLM pool of 16.0 donors, ref Kazmi, 2015

Chain of CYP3A4 (Homo sapiens, UniProt P08684) (P08684 2-503): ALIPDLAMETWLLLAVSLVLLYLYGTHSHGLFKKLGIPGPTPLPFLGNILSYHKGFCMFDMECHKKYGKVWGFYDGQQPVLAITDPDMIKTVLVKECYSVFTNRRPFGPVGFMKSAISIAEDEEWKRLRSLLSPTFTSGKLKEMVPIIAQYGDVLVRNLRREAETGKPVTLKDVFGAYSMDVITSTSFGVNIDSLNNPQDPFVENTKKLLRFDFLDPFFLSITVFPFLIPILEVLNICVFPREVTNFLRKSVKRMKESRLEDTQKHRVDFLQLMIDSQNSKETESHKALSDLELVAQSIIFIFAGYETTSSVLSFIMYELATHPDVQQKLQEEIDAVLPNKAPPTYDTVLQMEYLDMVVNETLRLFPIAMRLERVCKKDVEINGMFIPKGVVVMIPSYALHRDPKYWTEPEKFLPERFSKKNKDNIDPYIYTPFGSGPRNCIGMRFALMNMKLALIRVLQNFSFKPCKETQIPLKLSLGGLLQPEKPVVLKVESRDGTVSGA
T1 sequence (P05177 whole entry): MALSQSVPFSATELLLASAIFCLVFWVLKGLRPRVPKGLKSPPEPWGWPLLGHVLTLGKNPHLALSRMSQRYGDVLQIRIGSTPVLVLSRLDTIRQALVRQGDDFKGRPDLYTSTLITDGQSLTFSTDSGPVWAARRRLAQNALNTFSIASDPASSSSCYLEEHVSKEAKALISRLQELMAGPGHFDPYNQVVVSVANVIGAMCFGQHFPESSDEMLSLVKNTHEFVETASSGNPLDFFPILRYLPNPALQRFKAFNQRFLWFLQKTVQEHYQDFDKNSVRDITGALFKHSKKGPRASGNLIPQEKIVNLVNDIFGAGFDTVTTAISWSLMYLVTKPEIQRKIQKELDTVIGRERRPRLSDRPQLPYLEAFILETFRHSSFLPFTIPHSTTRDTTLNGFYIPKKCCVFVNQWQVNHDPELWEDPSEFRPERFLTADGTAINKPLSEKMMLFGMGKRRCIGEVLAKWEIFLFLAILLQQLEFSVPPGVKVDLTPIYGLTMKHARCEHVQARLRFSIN

Cc1ncc2n1-c1ccc(Cl)cc1C(c1ccccc1F)=NC2 [MDZ, midazolam, reference compound]
microsomal CLint [1]: 445 µL/min/mg
Km [1]: 2.15 µM
CLH,B calculated (hepatic blood clearance, AAF corrected) ([2]; human, pH 7.4): 44.1 L/h
CLH,p calculated (hepatic plasma clearance) ([2]; human, pH 7.4): 26.6 L/h
CLH,u,int (whole liver) ([2]; human, pH 7.4): 1,941 L/h
calculated CLH,B compared to literature ([2]; human, pH 7.4): ≤ 1.00 fold
CLH,p literature ([3]; ref Persson et al. (1987)): 29.0 L/h^d
CLH,u,int (whole liver) (human liver microsomes [4]): 2,700 L/h
fraction unbound [5]: 0.907
Km (CYP3A4 [6]; human): 3.2 µM
Vmax (CYP3A4 [6]; human, pH 7.4): 14.1 pmol/min/pmol P450

CCOc1ccc(NC(C)=O)cc1 [PH, phenacetin, reference compound]
microsomal CLint [1]: 21.4 µL/min/mg
Km [1]: 40 µM
CLH,p calculated (hepatic plasma clearance) ([2]; HLM, probe substrates, CLH,B x B:P): 21.9 L/h
CLH,B calculated (hepatic blood clearance, AAF corrected) ([2]; HLM, probe substrates, QH 90 L/h, Equation 9): 21.7 L/h
calculated CLH,B compared to literature ([2]; HLM, MDZ vs Kazmi, 2015, PH vs Shibata et al., 2002): ≤ 1.04 fold
CLH,u,int (whole liver) ([2]; HLM, MPPGL 40 mg/g, LW 1,650 g, Equation 4): 84.74 L/h
CLH,B literature (in vivo human hepatic blood clearance) ([3]; ref Shibata et al. (2002)): 20.8 L/h
Vmax (CYP1A2 [7]; CYP1A2 bactosomes): 11.6 pmol/min/pmol P450
CLH,u,int (whole liver) (human liver microsomes [4]; [13]): 92.00 L/h
CLint,in vitro (human liver microsomes [4]; [13]): 23.3 µL/min/mg
CLint,in vitro (human liver microsomes [4]; HLM pool of 105 donors, ref Gao et al., 2017): 14.5 µL/min/mg
Km (human liver microsomes [4]): 10 to 62 µM

aflatoxin B1 [AFB1]
contribution ascribed to other enzymes, expectedly CYP2A13 (human liver microsomes [8]): 6.0%
sum of CYP3A4/5 and CYP1A2 contributions (human liver microsomes [8]): 94%
CLH,B calculated (hepatic blood clearance, AAF corrected), CYP3A4 [2]: 40.0 L/h and 40.0^CYP3A4 L/h
CLH,p calculated, CYP1A2 [2]: 39.6 L/h
CLH,p calculated, CYP3A4 [2]: 41.2 L/h
CLH,u,int (whole liver) [2]: 1,190 L/h
CLH,u,int (whole liver), CYP1A2 [2]: 583^CYP1A2 L/h
CLH,u,int (whole liver), CYP3A4 [2]: 535^CYP3A4 L/h
CLH,u,int,AAF [2]: 450^CYP3A4 L/h and 420^CYP1A2 L/h
Km [2]: 40.9 µM
CLint,in vitro ([2]; human): 282 µL/min/mg
fu,B (free fraction in blood) [9]: 0.160^b
CYP1A2 contribution (CYP1A2 [10]): 1–5%
contribution of CYP1A2 (CYP1A2 [10]): 95%
Km (CYP1A2 [10]; read-out: Km for the AFBO formation via CYP1A2): 41 µM
Km (CYP1A2 [10]; read-out: Km for the AFM1 formation via CYP1A2): 29 µM
CLH,B calculated (hepatic blood clearance, ISEF and AAF corrected) (CYP1A2 [7]): 56.1 L/h
CLH,B from EasyCYP bactosomes relative to CLH,B from HLM (CYP1A2) (CYP1A2 [7]): 1.46 fold
CLH,p calculated (CYP1A2 [7]): 57.8 L/h
CLH,u,int (CYP1A2 [7]): 1,295 L/h
CLH,u,int,AAF (CYP1A2 [7]): 932 L/h
Km (CYP1A2 [7]): 58.2 µM
Vmax,ISEF (CYP1A2 [7]): 14.7 nmol/mg/min
CYP3A4/5 contribution to AFB1 metabolism (CYP3A4/3A5): 45%
Vmax (AFBO or AFQ1 formation), range (human liver microsomes [4]): 236–11,281 pmol/(mg.min)
Km (human liver microsomes [4]; read-out: Km (AFBO or AFQ1 formation), range): 90 to 1720 µM
CYP3A5 contribution (CYP3A5): 4–15%
CYP3A4 contribution (CYP3A4 [11]): 79–95%
Km (CYP3A4 [11]; read-out: Km for the AFBO formation via CYP3A4): 133 µM
Km (CYP3A4 [11]; read-out: Km for the AFM1 formation via CYP3A4): 139 µM
CLH,B calculated (hepatic blood clearance, ISEF and AAF corrected) (CYP3A4 [6]): 47.7 L/h
CLH,B from supersomes relative to CLH,B from HLM (CYP3A4) (CYP3A4 [6]): 1.19 fold
CLH,p calculated (CYP3A4 [6]): 49.1 L/h
CLH,u,int (CYP3A4 [6]): 755 L/h
CLH,u,int,AAF (CYP3A4 [6]): 634 L/h
Km (CYP3A4 [6]): 49.6 µM
Vmax,ISEF (CYP3A4 [6]): 5.97 nmol/mg/min
Vmax,ISEF (ISEF corrected Vmax) (CYP3A4 [6]): 43.6 pmol/min/pmol P450
CYP1A2 contribution to AFB1 metabolism (CYP1A2 [12]): 49%
CYP3A7 contribution (CYP3A7): 5–7%
